Publication PMC2120771 (The Journal of Cell Biology, 1996)

How the values were obtained:
Listeria monocytogenes = settings: microinjection; ref Southwick and Purich, 1995; cited from earlier work
Shigella flexneri M90T = test: Shigella intracellular motility in PtK2 cells before and after microinjection; assay type: cell-based
profilin-VASP = settings: in vitro; ref Reinhard et al., 1995; cited from earlier work
[1] = intracellular concentration 10 μM
[2] = intracellular 80 nM, 2-4 min after microinjection

YDPAPPPPPP [mosquito oostatic factor]
Effect on Listeria locomotion (Listeria monocytogenes): inhibits Listeria locomotion

(GPPPPP)3 [VASP peptide]
Intracellular concentration that inhibits Shigella movement (Shigella flexneri M90T; PtK2 cells, microinjection, estimated intracellular concentration): 10 µM | Postinjection/preinjection velocity (Shigella flexneri M90T; [1]): 0.15 | Postinjection velocity (Shigella flexneri M90T; intracellular concentration 10 μM, mean, SD): 0.02 - 0.05 μm/s | Effect on Shigella motility (Shigella flexneri M90T; intracellular concentrations 2 and 6 μM (Fig. 7 B), large standard deviations): variable inhibition | Dissociation of profilin from VASP (profilin-VASP): can dissociate profilin from VASP in vitro

poly-L-proline [reference compound]
Effect on Shigella velocity (Shigella flexneri M90T; increasing intracellular concentrations (Fig. 8 A), each point mean of 20-40 velocity measurements): dose-dependent slowing of bacterial velocity

VKSKIGSTDNIKYZPKGG [MAP-2 peptide, reference compound]
Postinjection/preinjection velocity (Shigella flexneri M90T; [1]): 1.00

CFEFPPPPTDE [Act A peptide]
Time after injection at which bacterial motility ceases (Shigella flexneri M90T; 800 nM needle concentration, estimated intracellular concentration 80 nM): ≤ 30 s | Time after injection at which phase-dense actin tails disappear (Shigella flexneri M90T; estimated intracellular concentration 80 nM): ≤ 30 s | Fraction of bacteria that resume migration (Shigella flexneri M90T; [2]): One quarter | Rate of resumed movement relative to velocities measured before injection (Shigella flexneri M90T; [2]): 25-30% | Effect on Shigella intracellular movement (Shigella flexneri M90T; intracellular concentration 8 nM (Fig. 5 B)): fails to inhibit | Postinjection/preinjection velocity (Shigella flexneri M90T; intracellular concentration 80 nM): 0.07 | Effect on Shigella intracellular movement (Shigella flexneri M90T; intracellular concentrations 400-800 nM (Fig. 5 B)): consistently block intracellular movement
